# Measured values published in US10314883B2, “Compositions and methods for regulating blood pressure” (University of Virginia Patent Foundation, priority 2015, dated 2019).
# Experiments:
# Panx1 = molecular target: T1, Panx1 (Mus musculus, UniProt Q9JIP4); assay: Whole-cell patch clamp of CBX-sensitive Panx1 current in HEK293 cells cotransfected with mPanx1 and α1DAR; type: cell-based; conditions: phenylephrine 20 μmol/L; for effect on phenylephrine-induced Panx1 current: cells pre-incubated with peptide 40-60 minutes
# T1 construct: we progressively substituted amino acids in this region of full-length Panx1 with alanine residues; HA; expressed in transfected cells; host or cells: HEK293T cells, transient co-transfection with alpha1DAR plasmid (Origene, NM_013460, C-terminal Myc-DDK)
# Protocol: Human Embryonic Kidney (HEK) 293T cells were cultured as previously described, and were used until passage 20. For ATP measurements, 50,000 cells/well were seeded in 24 well plates pre-coated with 0.01% poly-L-lysine, and transfected using Lipofectamine 2000 (Invitrogen) according to the manufacturer protocol. Briefly, 0.4 μg of α1DAR and 0.4 μg of Panx1^WT, Panx1^KYP>AAA, Panx1^IVEQ>AAA or Panx1^YLK>AAA plasmids were added to each well along with 2 μl of Lipofectamine 2000. For electrophysiology measurements, 4 μg of α1DAR plasmid, 2 μg of Panx1^WT, Panx1^KYP>AAA, Panx1^IVEQ>AAA or Panx1^YLK>AAA plasmids, and 0.5 μg of GFP plasmid were mixed with 10 μl Lipofectamine 2000 and added to a well of 6-well plate seeded with ˜70% confluent HEK cells. Cells were split the next morning and plated onto a glass coverslip for recording. ATP measurements and whole-cell recordings were performed 24 hours after transfection.
# Whole-cell recordings were obtained at room temperature from transiently transfected HEK293T cells using Axopatch 200B amplifier (Molecular Devices) in a bath solution composed of 140 mmol/L NaCl, 3 mmol/L KCl, 2 mmol/L MgCl2, 2 mmol/L CaCl2, 10 mmol/L HEPES and 10 mmol/L glucose (pH 7.3). Patch pipettes (3-5 MΩ) were filled with a Cs-/TEA-based internal solution, as previously described. Ramp voltage commands with 7-s intervals were applied using pCLAMP software and Digidata1322A digitizer (Molecular Devices). Peak whole-cell currents were determined at +80 mV and normalized to cell capacitance. Current mediated by Panx1 was defined by its sensitivity to carbenoxolone (CBX). In this system, no CBX-sensitive current is observed in HEK293T cells without Panx1. Basal current was recorded for approximately two minutes and PE (20 μmol/L) was applied to the bath solution, which was followed by addition of CBX (50 μmol/L). When indicated, cells were pre-incubated with bath solution containing IL2 peptide or its scrambled version at room temperature for 40-60 minutes prior to the experiment. The effect of PE on Panx1 current was quantified relative to CBX-sensitive basal current, and data was expressed as percent increase in CBX-sensitive current. All experiments were performed on 8 to 22 cells for each conditions tested. Data were analyzed using a Kruskall Wallis test (non-parametric one-way ANOVA) followed by Dunn's post-hoc test.
# To test if α1AR stimulation triggered opening of the Panx1 channel and the importance of the region represented by the IL2 peptide, we cotransfected mPanx1 and α1DAR into HEK293 cells and monitored whole-cell currents by patch clamp electrophysiology.
# [1] = test system: thoracodorsal arteries (TDA); assay: ATP release from intact TDA (luciferin:luciferase); type: cell-based, mouse; conditions: for effect on phenylephrine-induced ATP release from intact TDAs: phenylephrine 100 μmol/L, ^10Panx1 300 μmol/L, peptides 3 μmol/L
# Protocol: Mouse TDAs of equal length were isolated and washed thoroughly to eliminate red blood cells. Vessels were placed in a well of a 96-well plate containing Krebs-HEPES solution supplemented with 1% BSA at 37° C. for 30 minutes to allow for degradation of any ATP released as a result of mechanical stimulation during manipulation of the vessel. For measurements performed on HEK cells: 24 hours after transfection, cells cultured in 24-well plates were cautiously washed twice with warm Krebs-HEPES-BSA and 300 μl of Krebs-HEPES-BSA was added to each well after the last wash as previously described. The plate was then kept in the incubator at 37° C. with 5% CO2 for 30 minutes to allow for degradation of ATP eventually released during the washes.
# The ectonucleotidase inhibitor ARL67156 (300 μmol/L) was applied to each well. When indicated, ^10Panx1 (300 μmol/L) or the peptides analog to intracellular regions of Panx1 (3 μmol/L) were added along with the ARL67156. After a 30 minute incubation at 37° C. with the inhibitor(s), phenylephrine (100 μmol/L) or equivalent volume of Krebs-HEPES-BSA was added and the plate was kept at 37° C. After five minutes of phenylephrine stimulation, the media surrounding the TDA or the cells was transferred to an Eppendorf tube and centrifuged for five minutes at 5,000×g to eliminate eventual cell debris. Fifty microliters of the supernatant was transferred to a white-wall 96 well plate and placed in a FluoStar Omega luminometer. The ATP concentration was measured by adding 50 μL of luciferin:luciferase reagent (ATP bioluminescence assay kit HSII; Roche), which was injected into each well and the luminescence was immediately recorded. Data are expressed as a percent increase in ATP concentration compared to unstimulated condition. Each stimulated condition was compared to unstimulated condition performed on the same day, and all experiments were performed on at least 15 wells of HEK cells or three TDAs. Data were analyzed using a Kruskall Wallis test (non-parametric one-way ANOVA) followed by Dunn's post-hoc test.
# To determine if the TDA response involved release of ATP, we dissected TDAs from C57Bl/6 mice and measured the accumulation of extracellular ATP in response to various agonists in the medium (FIG. 1E, inset). The TDAs were placed in a well of a 96 well plate in Krebs-HEPES solution and treated with the ectonucleotidase inhibitor ARL67156 for 30 minutes. Next, arteries were treated with a contractile agonist for five minutes and the amount of ATP in the media surrounding the vessel was determined using the ATP bioluminescence assay kit HSII (Roche).
# T1 sequence (Q9JIP4 whole entry): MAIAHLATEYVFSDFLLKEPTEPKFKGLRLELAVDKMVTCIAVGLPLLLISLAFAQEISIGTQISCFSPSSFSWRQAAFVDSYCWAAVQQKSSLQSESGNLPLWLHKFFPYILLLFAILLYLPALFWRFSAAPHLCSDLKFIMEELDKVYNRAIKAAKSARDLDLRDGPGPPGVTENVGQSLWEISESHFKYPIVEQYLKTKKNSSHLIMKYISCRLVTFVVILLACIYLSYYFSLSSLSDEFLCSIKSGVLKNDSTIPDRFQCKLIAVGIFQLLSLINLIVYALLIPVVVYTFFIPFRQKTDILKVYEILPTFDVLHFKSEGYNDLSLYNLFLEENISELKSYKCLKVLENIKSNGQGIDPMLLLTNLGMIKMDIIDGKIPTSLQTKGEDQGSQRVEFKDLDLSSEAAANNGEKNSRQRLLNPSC
Molecule,effect of agonist on Panx1 whole-cell current (Panx1; cells expressing both mPanx1 and α1DAR),"ATP release from intact TDAs in response to agonist ([1]; five minutes of agonist, ARL67156 300 μmol/L)",effect on phenylephrine-induced Panx1 current (Panx1),effect on phenylephrine-induced ATP release from intact TDAs [1]
"CNC[C@H](O)c1cccc(O)c1 [Phenylephrine, phenylephrine]",increased this current,stimulated ATP release,,
KYPIVEQYLKYGRKKQRRR [IL2],,,significantly decreased,significantly decreased
scrambled intracellular loop 2 IYLYVEQKPY (SEQ ID NO: 7) linked with a TAT sequence [Scrambled IL2],,,no effect,no effect
